Target: JAK1 (Homo sapiens (Human), UniProt P23458)
Test: Analysis of JAK1 activity inhibition ability (ADP-Glo Kinase Assay)
Assay type: biochemical
Details: JAK1 enzyme, ADP-Glo luminescence, ATP 250 uM, IRS-itide substrate, 30° C. 40 minutes; read-out: IC50
Summary of the method: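 JAK1 enzyme, IRS-itide substrate (40 ng/mL) and 250 uM ATP, both as prepared in kinase buffer (Tris-HCl pH 7.5, MgCl2, BSA, DTT), reacted with compound 40 min at 30 °C. ADP formed was detected by ADP-Glo luminescence; IC50 is the concentration giving 50% inhibition versus control.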

Sequence of JAK1 (P23458 whole entry): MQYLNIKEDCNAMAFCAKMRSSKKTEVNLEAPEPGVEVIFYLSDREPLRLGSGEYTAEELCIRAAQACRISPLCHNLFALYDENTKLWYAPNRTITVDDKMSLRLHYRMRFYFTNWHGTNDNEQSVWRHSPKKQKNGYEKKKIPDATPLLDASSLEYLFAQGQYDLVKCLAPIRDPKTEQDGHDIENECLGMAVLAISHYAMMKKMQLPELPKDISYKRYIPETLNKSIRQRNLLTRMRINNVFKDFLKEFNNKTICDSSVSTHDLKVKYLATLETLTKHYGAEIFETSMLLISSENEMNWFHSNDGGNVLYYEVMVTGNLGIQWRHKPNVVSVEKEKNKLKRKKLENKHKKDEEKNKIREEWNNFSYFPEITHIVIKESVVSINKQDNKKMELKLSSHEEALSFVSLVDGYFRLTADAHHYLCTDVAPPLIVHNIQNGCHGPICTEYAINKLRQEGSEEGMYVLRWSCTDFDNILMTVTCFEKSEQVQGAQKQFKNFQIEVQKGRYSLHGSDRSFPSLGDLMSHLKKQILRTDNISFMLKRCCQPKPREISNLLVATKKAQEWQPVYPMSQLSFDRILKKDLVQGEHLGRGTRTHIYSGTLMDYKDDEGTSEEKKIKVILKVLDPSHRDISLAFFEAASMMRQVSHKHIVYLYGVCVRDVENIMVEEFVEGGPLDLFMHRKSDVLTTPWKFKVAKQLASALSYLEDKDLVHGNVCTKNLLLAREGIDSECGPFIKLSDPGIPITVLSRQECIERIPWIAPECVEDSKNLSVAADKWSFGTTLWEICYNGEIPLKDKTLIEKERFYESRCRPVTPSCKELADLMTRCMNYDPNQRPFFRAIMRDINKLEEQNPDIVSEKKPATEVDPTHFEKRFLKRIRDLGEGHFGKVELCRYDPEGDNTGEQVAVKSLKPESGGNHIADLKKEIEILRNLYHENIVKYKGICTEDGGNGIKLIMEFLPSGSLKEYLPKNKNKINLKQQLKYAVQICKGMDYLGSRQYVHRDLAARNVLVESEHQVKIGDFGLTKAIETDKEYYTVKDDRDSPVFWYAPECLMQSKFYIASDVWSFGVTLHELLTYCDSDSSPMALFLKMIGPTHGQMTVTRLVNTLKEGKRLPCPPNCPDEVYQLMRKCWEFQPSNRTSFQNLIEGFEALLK

| Compound | IC50 [nM] |
| --- | --- |
| CC1CN(C(=O)c2cccc(CCN3C(=O)COCC3=O)c2)CC=C1c1cc(NC(=O)C2CC2)nc2[nH]ccc12 (centres unmarked) [Example 315, N-(4-(1-(3-(2-(3,5-dioxomorpholino)ethyl)benzoyl)-3-methyl-1,2,3,6-tetrahydropyridin-4-yl)-1H-pyrrolo[2,3-b]pyridin-6-yl)cyclopropanecarboxamide] | > 200 |
| N#CC1CCN(C(=O)Cc2ccc(-c3cc(NC(=O)C4CC4)nc4[nH]ccc34)cc2)C1 (centres unmarked) [Example 567, N-(4-(4-(2-(3-cyanopyrrolidin-1-yl)-2-oxoethyl)phenyl)-1H-pyrrolo[2,3-b]pyridin-6-yl)cyclopropanecarboxamide] | 20 to 200 |
| CCS(=O)(=O)Nc1ccc(-c2cc(NS(=O)(=O)C3CC3)nc3[nH]ccc23)cc1F [Example 716, N-(4-(4-(ethylsulfonamido)-3-fluorophenyl)-1H-pyrrolo[2,3-b]pyridin-6-yl)cyclopropanesulfonamide] | > 200 |
| Cc1cc(C(=O)NCC(F)(F)F)ccc1-c1cc(NC(=O)C2CC2)nc2[nH]ccc12 [Example 525, 4-(6-(cyclopropanecarboxamido)-1H-pyrrolo[2,3-b]pyridin-4-yl)-3-methyl-N-(2,2,2-trifluoroethyl)benzamide] | 20 to 200 |
| CC1CN(C(=O)C2(C#N)CCCC2)CC=C1c1cc(NC(=O)C2CC2)nc2[nH]ccc12 (centres unmarked) [Example 361, N-(4-(1-(1-cyanocyclopentane-1-carbonyl)-3-methyl-1,2,3,6-tetrahydropyridin-4-yl)-1H-pyrrolo[2,3-b]pyridin-6-yl)cyclopropanecarboxamide] | 20 to 200 |
| CCCCS(=O)(=O)N1CC(n2cc(-c3cc(NC(=O)C4CC4)nc4[nH]ccc34)cn2)C1 [Example 602, N-(4-(1-(1-(butylsulfonyl)azetidin-3-yl)-1H-pyrazol-4-yl)-1H-pyrrolo[2,3-b]pyridin-6-yl)cyclopropanecarboxamide] | > 200 |
| CC1CN(C(=O)c2ccncc2)CC=C1c1cc(NC(=O)C2CC2)nc2[nH]ccc12 (centres unmarked) [Example 336, N-(4-(1-isonicotinoyl-3-methyl-1,2,3,6-tetrahydropyridin-4-yl)-1H-pyrrolo[2,3-b]pyridin-6-yl)cyclopropanecarboxamide] | 20 to 200 |
| O=C(Nc1cc(-c2cnn(C3CN(S(=O)(=O)c4ccc(F)c(F)c4)C3)c2)c2cc[nH]c2n1)C1CC1 [Example 605, N-(4-(1-(1-((3,4-difluorophenyl)sulfonyl)azetidin-3-yl)-1H-pyrazol-4-yl)-1H-pyrrolo[2,3-b]pyridin-6-yl)cyclopropanecarboxamide] | 20 to 200 |
| C=CCS(=O)(=O)N[C@H]1CCN(c2nc(NC(=O)C3CC3)nc3[nH]ccc23)C1 [Example 671, (S)—N-(4-(3-(allylsulfonamido)pyrrolidin-1-yl)-7H-pyrrolo[2,3-d]pyrimidin-2-yl)cyclopropanecarboxamide] | > 200 |
| N#CCC(=O)N1C2CC1CN(c1cc(NC(=O)C3CC3)nc3[nH]ccc13)C2 [Example 685, N-(4-(6-(2-cyanoacetyl)-3,6-diazabicyclo[3.1.1]heptan-3-yl)-1H-pyrrolo[2,3-b]pyridin-6-yl)cyclopropanecarboxamide] | > 200 |
| CC(C)N1CCN(C(=O)Cc2ccc(-c3cc(NC(=O)C4CC4)nc4[nH]ccc34)cc2)CC1 [Example 552, N-(4-(4-(2-(4-isopropylpiperazin-1-yl)-2-oxoethyl)phenyl)-1H-pyrrolo[2,3-b]pyridin-6-yl)cyclopropanecarboxamide] | > 200 |
| O=C(Nc1cc(-c2ccc(NC3CCN(C(=O)c4ccncc4)CC3)cc2)c2cc[nH]c2n1)C1CC1 [Example 507, N-(4-(4-((1-isonicotinoylpiperidin-4-yl)amino)phenyl)-1H-pyrrolo[2,3-b]pyridin-6-yl)cyclopropanecarboxamide] | > 200 |
| CSc1ccccc1C(=O)N1CC=C(c2cc(NC(=O)C3CC3)nc3[nH]ccc23)C(C)C1 (centres unmarked) [Example 357, N-(4-(3-methyl-1-(2-(methylthio)benzoyl)-1,2,3,6-tetrahydropyridin-4-yl)-1H-pyrrolo[2,3-b]pyridin-6-yl)cyclopropanecarboxamide] | 20 to 200 |
| CCCC(=O)Nc1cc(-c2ccc(NS(=O)(=O)CC)c(F)c2)c2cc[nH]c2n1 [Example 712, N-(4-(4-(ethylsulfonamido)-3-fluorophenyl)-1H-pyrrolo[2,3-b]pyridin-6-yl)butyramide] | > 200 |
| O=C(Nc1cc(-c2ccc(CC(=O)N3CCOCC3)cc2)c2cc[nH]c2n1)C1CC1 [Example 536, N-(4-(4-(2-morpholino-2-oxoethyl)phenyl)-1H-pyrrolo[2,3-b]pyridin-6-yl)cyclopropanecarboxamide] | 20 to 200 |
| CS(=O)(=O)N1CCC(n2cc(-c3cc(NC(=O)C4CC4)nc4[nH]ccc34)cn2)CC1 [Example 607, N-(4-(1-(1-(methylsulfonyl)piperidin-4-yl)-1H-pyrazol-4-yl)-1H-pyrrolo[2,3-b]pyridin-6-yl)cyclopropanecarboxamide] | 20 to 200 |
| C=CCC(=O)N1CC=C(c2cc(NC(=O)C3CC3)nc3[nH]ccc23)CC1 [Example 270, N-(4-(1-(but-3-enoyl)-1,2,3,6-tetrahydropyridin-4-yl)-1H-pyrrolo[2,3-b]pyridin-6-yl)cyclopropanecarboxamide] | > 200 |
| N#Cc1cc(NS(=O)(=O)CC2(C#N)CC2)ccc1-c1cc(NC(=O)C2CC2)nc2[nH]ccc12 [Example 147, N-(4-(2-cyano-4-(((1-cyanocyclopropyl)methyl)sulfonamido)phenyl)-1H-pyrrolo[2,3-b]pyridin-6-yl)cyclopropanecarboxamide] | > 200 |
| O=C(Nc1cc(-c2ccc(CC(=O)N3CCCC3)cc2)c2cc[nH]c2n1)C1CC1 [Example 547, N-(4-(4-(2-oxo-2-(pyrrolidin-1-yl)ethyl)phenyl)-1H-pyrrolo[2,3-b]pyridin-6-yl)cyclopropanecarboxamide] | 20 to 200 |
| CC1CN(C(=O)c2ccnc(C(F)(F)F)c2)CC=C1c1cc(NC(=O)C2CC2)nc2[nH]ccc12 (centres unmarked) [Example 384, N-(4-(3-methyl-1-(2-(trifluoromethyl)isonicotinoyl)-1,2,3,6-tetrahydropyridin-4-yl)-1H-pyrrolo[2,3-b]pyridin-6-yl)cyclopropanecarboxamide] | 20 to 200 |

Now from value to compound:

| IC50 [nM] | Compound |
| --- | --- |
| 20 to 200 | N#CCCN1CC=C(c2cc(NC(=O)C3CC3)nc3[nH]ccc23)C1 [Example 485, N-(4-(1-(2-cyanoethyl)-2,5-dihydro-1H-pyrrol-3-yl)-1H-pyrrolo[2,3-b]pyridin-6-yl)cyclopropanecarboxamide] |
| 20 to 200 | N#CCC(=O)N1CC(n2cc(-c3cc(NC(=O)C4CC4)nc4[nH]ccc34)cn2)C1 [Example 610, N-(4-(1-(1-(2-cyanoacetyl)azetidin-3-yl)-1H-pyrazol-4-yl)-1H-pyrrolo[2,3-b]pyridin-6-yl)cyclopropanecarboxamide] |
| < 20 | O=C(Nc1nc(-c2ccc(NS(=O)(=O)c3ccc(F)c(F)c3)cc2)c2cc[nH]c2n1)C1CC1 [Example 181, N-(4-(4-((3,4-difluorophenyl)sulfonamido)phenyl)-7H-pyrrolo[2,3-d]pyrimidin-2-yl)cyclopropanecarboxamide] |
| < 20 | O=C(Nc1cc(C2=CCN(C(=O)c3cnsc3)CC2)c2cc[nH]c2n1)C1CC1 [Example 292, N-(4-(1-(isothiazole-4-carbonyl)-1,2,3,6-tetrahydropyridin-4-yl)-1H-pyrrolo[2,3-b]pyridin-6-yl)cyclopropanecarboxamide] |
| < 20 | CC[C@@H]1C=C(c2cc(NC(=O)C3CC3)nc3[nH]ccc23)CCN1C(=O)CC#N [Example 416, (R)—N-(4-(1-(2-cyanoacetyl)-6-ethyl-1,2,3,6-tetrahydropyridin-4-yl)-1H-pyrrolo[2,3-b]pyridin-6-yl)cyclopropanecarboxamide] |
| < 20 | CCS(=O)(=O)Nc1ccc(-c2cc(NC(=O)C3CC3)nc3[nH]ccc23)c(C)c1 [Example 29, N-(4-(4-(ethylsulfonamido)-2-methylphenyl)-1H-pyrrolo[2,3-b]pyridin-6-yl)cyclopropanecarboxamide] |
| < 20 | N#CCC1(CS(=O)(=O)NC2CC=C(c3cc(NC(=O)C4CC4)nc4[nH]ccc34)CC2)CC1 (centres unmarked) [Example 156, N-(4-(4-(((1-(cyanomethyl)cyclopropyl)methyl)sulfonamido)cyclohex-1-en-1-yl)-1H-pyrrolo[2,3-b]pyridin-6-yl)cyclopropanecarboxamide] |
| < 20 | CC(C)C1CC(c2cc(NC(=O)C3CC3)nc3[nH]ccc23)=CCN1C(=O)CC#N (centres unmarked) [Example 410, N-(4-(1-(2-cyanoacetyl)-2-isopropyl-1,2,3,6-tetrahydropyridin-4-yl)-1H-pyrrolo[2,3-b]pyridin-6-yl)cyclopropanecarboxamide] |
| < 20 | CCc1cc(-c2cc(NC(=O)C3CC3)nc3[nH]ccc23)ccc1NS(=O)(=O)CC1(C#N)CC1 [Example 123, N-(4-(4-(((1-cyanocyclopropyl)methyl)sulfonamido)-3-ethylphenyl)-1H-pyrrolo[2,3-b]pyridin-6-yl)cyclopropanecarboxamide] |
| < 20 | O=C(Nc1cc(C2=CCC(NS(=O)(=O)c3cccc(F)c3)CC2)c2cc[nH]c2n1)C1CC1 (centres unmarked) [Example 163, N-(4-(4-((3-fluorophenyl)sulfonamido)cyclohex-1-en-1-yl)-1H-pyrrolo[2,3-b]pyridin-6-yl)cyclopropanecarboxamide] |
| < 20 | CC(C)CCS(=O)(=O)Nc1ccc(-c2cc(NC(=O)C3CC3)nc3[nH]ccc23)cc1 [Example 45, N-(4-(4-((3-methylbutyl)sulfonamido)phenyl)-1H-pyrrolo[2,3-b]pyridin-6-yl)cyclopropanecarboxamide] |
| < 20 | C=CCS(=O)(=O)Nc1ccc(-c2cc(NC(=O)C3CC3)nc3[nH]ccc23)cc1 [Example 48, N-(4-(4-(allylsulfonamido)phenyl)-1H-pyrrolo[2,3-b]pyridin-6-yl)cyclopropanecarboxamide] |

— patent US11524968B2, “Heterocyclic compound as a protein kinase inhibitor” (HK inno.N Corporation, priority 2017, dated 2022)
